According to PubChem BioAssay (NCI):
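The concentration for 50% growth inhibition is given as GI50. TGI marks complete inhibition of growth.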

Experiments:
Assay in all cases: NCI tumour cell line growth inhibition, 384-well format; in the data active = GI50 below about 0.43 µM; inactive = the rest
[1] = test system: SK-OV-3 ovarian
[2] = test system: HCT-15 colon
[3] = test system: OVCAR-5 ovarian
[4] = test system: SN12C renal
[5] = test system: SF-268 CNS
[6] = test system: MDA-MB-435 melanoma
[7] = test system: HT29 colon
[8] = test system: 786-0 renal
[9] = test system: NCI/ADR-RES ovarian
[10] = test system: RXF 393 renal
[11] = test system: OVCAR-8 ovarian
[12] = test system: NCI-H322M lung
[13] = test system: A549 NSCLC
[14] = test system: SF-539 CNS
[15] = test system: IGROV1 ovarian
[16] = test system: M14 melanoma
[17] = test system: NCI-H23 lung
[18] = test system: SF-295 CNS
[19] = test system: NCI-H226 lung
[20] = test system: SK-MEL-28 melanoma
[21] = test system: HS 578T breast
[22] = test system: CAKI-1 renal
[23] = test system: T-47D breast
[24] = test system: MCF7 breast
[25] = test system: SNB-19 CNS
[26] = test system: SR leukemia
[27] = test system: SK-MEL-2 melanoma
[28] = test system: OVCAR-3 ovarian
[29] = test system: COLO 205 colon
[30] = test system: HCC-2998 colon
[31] = test system: PC-3 prostate
[32] = test system: EKVX NSCLC
[33] = test system: MDA-MB-468 breast
[34] = test system: SK-MEL-5 melanoma
[35] = test system: UACC-62 melanoma
[36] = test system: MALME-3M melanoma
[37] = test system: SW-620 colon
[38] = test system: U251 glioblastoma
[39] = test system: HOP-92 NSCLC
[40] = test system: KM12 colon
[41] = test system: ACHN renal
[42] = test system: BT-549 breast
[43] = test system: HOP-62 NSCLC
[44] = test system: MOLT-4 leukemia
[45] = test system: A498 renal
[46] = test system: DU-145 prostate
[47] = test system: UACC-257 melanoma
[48] = test system: MDA-MB-231 breast
[49] = test system: NCI-H522 lung
[50] = test system: NCI-H460 NSCLC
[51] = test system: OVCAR-4 ovarian
[52] = test system: SNB-75 CNS
[53] = test system: RPMI-8226 leukemia
[54] = test system: TK-10 renal
[55] = test system: CCRF-CEM leukemia
[56] = test system: HL-60(TB) leukemia

CNC(=O)c1ccc2cc(C3(O)CCn4cncc43)ccc2c1 (configuration not stated)
inactive: GI50 [1] > 100 µM | GI50 [2] > 100 µM | GI50 [3] > 100 µM | GI50 [4] > 100 µM | GI50 [5] > 100 µM | GI50 [6] > 100 µM | GI50 [7] > 100 µM | GI50 [8] > 100 µM | GI50 [9] > 100 µM | GI50 [10] > 100 µM | GI50 [11] > 100 µM | GI50 [12] > 100 µM | GI50 [13] > 100 µM | GI50 [14] > 100 µM | GI50 [15] > 100 µM | GI50 [16] > 100 µM | GI50 [17] > 100 µM | GI50 [18] > 100 µM | GI50 [19] > 100 µM | GI50 [20] > 100 µM | GI50 [21] > 100 µM | GI50 [22] > 100 µM | GI50 [23] > 100 µM | GI50 [24] > 100 µM | GI50 [25] > 100 µM | GI50 [26] > 100 µM | GI50 [27] > 100 µM | GI50 [28] > 100 µM | GI50 [29] > 100 µM | GI50 [30] > 100 µM | GI50 [31] > 100 µM | GI50 [32] > 100 µM | GI50 [33] > 100 µM | GI50 [34] > 100 µM | GI50 [35] > 100 µM | GI50 [36] > 100 µM | GI50 [37] > 100 µM | GI50 [38] > 100 µM | GI50 [39] > 100 µM | GI50 [40] > 100 µM | GI50 [41] > 100 µM | GI50 [42] > 100 µM | GI50 [43] > 100 µM | GI50 [44] > 100 µM | GI50 [45] > 100 µM | GI50 [46] > 100 µM | GI50 [47] > 100 µM | GI50 [48] > 100 µM | GI50 [49] > 100 µM | GI50 [50] > 100 µM | GI50 [51] > 100 µM | GI50 [52] > 100 µM | GI50 [53] > 100 µM | GI50 [54] > 100 µM | GI50 [55] > 100 µM | GI50 [56] > 100 µM
> 100 µM: TGI [1] | TGI [2] | TGI [3] | TGI [4] | TGI [5] | TGI [6] | TGI [7] | TGI [8] | TGI [9] | TGI [10] | TGI [11] | TGI [12] | TGI [13] | TGI [14] | TGI [15] | TGI [16] | TGI [17] | TGI [18] | TGI [19] | TGI [20] | TGI [21] | TGI [22] | TGI [23] | TGI [24] | TGI [25] | TGI [26] | TGI [27] | TGI [28] | TGI [29] | TGI [30] | TGI [31] | TGI [32] | TGI [33] | TGI [34] | TGI [35] | TGI [36] | TGI [37] | TGI [38] | TGI [39] | TGI [40] | TGI [41] | TGI [42] | TGI [43] | TGI [44] | TGI [45] | TGI [46] | TGI [47] | TGI [48] | TGI [49] | TGI [50] | TGI [51] | TGI [52] | TGI [53] | TGI [54] | TGI [55] | TGI [56]
